Read-outs that look alike come from different tables or passages of the source.
System: HCV
Assay: Assay of anti-HCV activity in HCV-infected Huh7.5 cells (intracellular HCV RNA by one-step quantitative RT-PCR)
Type: cell-based
Conditions: Hepatitis C virus, read-out: inhibitory activities (inhibitory levels of the compounds against HCV replication)
Experimental: 100 μL Huh7.5 cells were seeded at a density of 1×10^5/mL in a 96-well cell culture plate and incubated in an incubator at 37° C., 5% CO2 and saturated humidity for 6 hrs. Then, while infecting Huh7.5 cells with viral solution containing HCV virus particles, the compounds of the present invention (including all specific compounds listed herein) were added at a concentration of 1 μM, respectively. After continuing incubation for 96 hrs, the total intracellular RNA was extracted separately, and the content of intracellular HCV RNA was measured by one-step quantitative RT-PCR, compared with the RNA level of the viral control, and the inhibition rate of the compounds against HCV was calculated.

[1] = compound at 1 μM, Huh7.5 cells infected with HCV, 96 hrs, intracellular HCV RNA vs viral control

| SMILES | inhibition at 1 µM [1] [%] | inhibition at 1 µM (Huh7.5, 96 h) [%] |
| --- | --- | --- |
| CN1CCCN(c2ccc(C(F)(F)F)c(CN3CCN(C(c4ccc(Cl)cc4)c4ccccn4)CC3)c2)CC1 (centres unmarked) [Compound 56, 1-(3-((4-((4-chlorophenyl)(pyridin-2-yl)methyl)piperazin-1-yl)methyl)-4-(trifluoromethyl)phenyl)-4-methyl-1,4-diazepane] | 50 to 75 |  |
| CN1CCCN(c2ccc(C(F)(F)F)c(CN3CCN(C(c4ccccc4)c4ccccn4)CC3)c2)CC1 (centres unmarked) [Compound 57, 1-methyl-4-(3-((4-(phenyl(pyridin-2-yl)methyl)piperazin-1-yl)methyl)-4-(trifluoromethyl)phenyl)-1,4-diazepane] | 50 to 75 |  |
| COc1ccc(C(c2ccc(OC)cc2)N2CCN(Cc3cc(N(C)CCN(C)C)ccc3C(F)(F)F)CC2)cc1 [Compound 58, N^1-(3-((4-(bis(4-methoxyphenyl)methyl)piperazin-1-yl)methyl)-4-(trifluoromethyl)phenyl)-N^1,N^2,N^2-trimethylethan-1,2-diamine] | > 75 |  |
| CCCN(CCN(C)C)c1ccc(C(F)(F)F)c(CN2CCN(C(c3ccc(Cl)cc3)c3ccc(Cl)cc3)CC2)c1 [Compound 59, N^1-(3-((4-(bis(4-chlorophenyl)methyl)piperazin-1-yl)methyl)-4-(trifluoromethyl)phenyl)-N^2,N^2-dimethyl-N^1-propylethan-1,2-diamine] | > 75 |  |
| CC1CN(C(c2ccc(F)cc2)c2ccc(F)cc2)CCN1Cc1cc(N2CCCN(C)CC2)ccc1C(F)(F)F (centres unmarked) [Compound 60, 1-(3-((4-(bis(4-fluorophenyl)methyl)-2-methylpiperazin-1-yl)methyl)-4-(trifluoromethyl)phenyl)-4-methyl-1,4-diazepane] | > 75 |  |
| CC1CN(C(c2ccc(Cl)cc2)c2ccc(Cl)cc2)CCN1Cc1cc(N2CCCN(C)CC2)ccc1C(F)(F)F (centres unmarked) [Compound 61, 1-(3-((4-(bis(4-chlorophenyl)methyl)-2-methylpiperazin-1-yl)methyl)-4-(trifluoromethyl)phenyl)-4-methyl-1,4-diazepane] | > 75 |  |
| CN(CC1CCCN1C)c1ccc(C(F)(F)F)c(CN2CCN(C(c3ccc(Cl)cc3)c3ccc(Cl)cc3)CC2)c1 (centres unmarked) [Compound 62, 3-((4-(bis(4-chlorophenyl)methyl)piperazin-1-yl)methyl)-N-methyl-N-((1-methylpyrrolidin-2-yl)methyl)-4-(trifluoromethyl)aniline] | > 75 |  |
| CN(CCN1CCCC1)c1ccc(C(F)(F)F)c(CN2CCN(C(c3ccc(Cl)cc3)c3ccc(Cl)cc3)CC2)c1 [Compound 63, 3-((4-(bis(4-chlorophenyl)methyl)piperazin-1-yl)methyl)-N-methyl-N-(2-(pyrrolidin-1-yl)ethyl)-4-(trifluoromethyl)aniline] | > 75 |  |
| CN(CCN1CC1)c1ccc(C(F)(F)F)c(CN2CCN(C(c3ccc(Cl)cc3)c3ccc(Cl)cc3)CC2)c1 [Compound 64, N-(2-(aziridin-1-yl)ethyl)-3-((4-(bis(4-chlorophenyl)methyl)piperazin-1-yl)methyl)-N-methyl-4-(trifluoromethyl)aniline] |  | > 75 |
| CCN1CCCN(c2ccc(C(F)(F)F)c(CN3CCN(C(c4ccccn4)c4ccccn4)CC3)c2)CC1 [Compound 65, 1-(3-((4-(di(pyridin-2-yl)methyl)piperazin-1-yl)methyl)-4-(trifluoromethyl)phenyl)-4-ethyl-1,4-diazepane] | 50 to 75 |  |
| CN(C)CCN(C)c1ccc(C(F)(F)F)c(CN2CCN(C(c3ccc(F)cc3)c3ccc(F)cc3)CC2)c1 [Compound 66, N^1-(3-((4-(bis(4-fluorophenyl)methyl)piperazin-1-yl)methyl)-4-(trifluoromethyl)phenyl)-N^1,N^2,N^2-trimethylethan-1,2-diamine] | > 75 |  |
| CN(C)C1CCCN(c2ccc(C(F)(F)F)c(CN3CCN(C(c4ccc(Cl)cc4)c4ccc(Cl)cc4)CC3)c2)C1 (centres unmarked) [Compound 67, 1-(3-((4-(bis(4-chlorophenyl)methyl)piperazin-1-yl)methyl)-4-(trifluoromethyl)phenyl)-N,N-dimethylpiperidin-3-amine] | > 75 |  |
| CN1CCN(c2ccc(C(F)(F)F)c(CN3CCN(C(c4ccc(Br)cc4)c4ccc(Br)cc4)CC3)c2)CC1 [Compound 68, 1-(bis(4-bromophenyl)methyl)-4-(5-(4-methylpiperazin-1-yl)-2-(trifluoromethyl)benzyl)piperazine] | > 75 |  |
| CN(C)C1CCN(c2ccc(C(F)(F)F)c(CN3CCN(C(c4ccc(F)cc4)c4ccc(F)cc4)CC3)c2)CC1 [Compound 69, 1-(3-((4-(bis(4-fluorophenyl)methyl)piperazin-1-yl)methyl)-4-(trifluoromethyl)phenyl)-N,N-dimethylpiperidin-4-amine] | > 75 |  |
| CCCN(C)CCN(C)c1ccc(C(F)(F)F)c(CN2CCN(C(c3ccc(Cl)cc3)c3ccc(Cl)cc3)CC2)c1 [Compound 70, N^1-(3-((4-(bis(4-chlorophenyl)methyl)piperazin-1-yl)methyl)-4-(trifluoromethyl)phenyl)-N^1,N^2-dimethyl-N^2-propylethan-1,2-diamine] | > 75 |  |
| CN(C)CCN(C)CCN(C)c1ccc(C(F)(F)F)c(CN2CCN(C(c3ccc(F)cc3)c3ccc(F)cc3)CC2)c1 [Compound 71, N^1-(3-((4-(bis(4-fluorophenyl)methyl)piperazin-1-yl)methyl)-4-(trifluoromethyl)phenyl)-N^2-(2-(dimethylamino)ethyl)-N^1,N^2-dimethylethan-1,2-diamine] | > 75 |  |
| CN(C)CCN(C)c1ccc(C(F)(F)F)c(CN2CCC(C(c3ccc(Cl)cc3)c3ccc(Cl)cc3)CC2)c1 [Compound 72, N^1-(3-((4-(bis(4-chlorophenyl)methyl)piperidin-1-yl)methyl)-4-(trifluoromethyl)phenyl)-N^1,N^2,N^2-trimethylethan-1,2-diamine] | > 75 |  |
| CN(C)CCN(C)c1ccc(C(F)(F)F)c(CN2CCC(C(c3ccc(Br)cc3)c3ccc(Br)cc3)CC2)c1 [Compound 73, N^1-(3-((4-(bis(4-bromophenyl)methyl)piperidin-1-yl)methyl)-4-(trifluoromethyl)phenyl)-N^1,N^2,N^2-trimethylethan-1,2-diamine] | > 75 |  |
| CN(C)CCN(C)c1ccc(C#N)c(CN2CCN(C(c3ccc(Cl)cc3)c3ccc(Cl)cc3)CC2)c1 [Compound 74, 2-((4-(bis(4-chlorophenyl)methyl)piperazin-1-yl)methyl)-4-((2-(dimethylamino)ethyl)(methyl)amino)benzonitrile] | > 75 |  |
| COc1ccc(C(c2ccc(OC)cc2)N2CCN(Cc3cc(N4CCCN(C)CC4)ccc3C#N)CC2)cc1 [Compound 75, 2-((4-(bis(4-methoxyphenyl)methyl)piperazin-1-yl)methyl)-4-(4-methyl-1,4-diazepan-1-yl)benzonitrile] | > 75 |  |
| CN1CCCN(c2ccc(C#N)c(CN3CCN(C(c4ccc(F)cc4)c4ccc(F)cc4)CC3)c2)CC1 [Compound 76, 2-((4-(bis(4-fluorophenyl)methyl)piperazin-1-yl)methyl)-4-(4-methyl-1,4-diazepan-1-yl)benzonitrile] | > 75 |  |
| CN1CCCN(c2ccc(C#N)c(CN3CCN(C(c4ccc(Cl)cc4)c4ccc(Cl)cc4)CC3)c2)CC1 [Compound 77, 2-((4-(bis(4-chlorophenyl)methyl)piperazin-1-yl)methyl)-4-(4-methyl-1,4-diazepan-1-yl)benzonitrile] | > 75 |  |
| CN(CCn1ccnc1)c1ccc(C#N)c(CN2CCN(C(c3ccc(Cl)cc3)c3ccc(Cl)cc3)CC2)c1 [Compound 78, 4-((2-(1H-imidazol-1-yl)ethyl)(methyl)amino)-2-((4-(bis(4-chlorophenyl)methyl)piperazin-1-yl)methyl)benzonitrile] | > 75 |  |
| CN(C)CCN(C)c1ccc(C#N)c(CN2CCN(C(c3ccncc3)c3ccncc3)CC2)c1 [Compound 79, 2-((4-(di(pyridin-4-yl)methyl)piperazin-1-yl)methyl)-4-((2-(dimethylamino)ethyl)(methyl)amino)benzonitrile] | 50 to 75 |  |
| CN1CCN(c2ccc(C#N)c(CN3CCN(C(c4ccc(Cl)cc4)c4ccc(Cl)cc4)CC3)c2)CC1 [Compound 80, 2-((4-(bis(4-chlorophenyl)methyl)piperazin-1-yl)methyl)-4-(4-methylpiperazin-1-yl)benzonitrile] | > 75 |  |
| CC(C)c1ccc(C(c2ccc(C(C)C)cc2)N2CCN(Cc3cc(N(C)CCN(C)C)ccc3C#N)CC2)cc1 [Compound 81, 2-((4-(bis(4-isopropylphenyl)methyl)piperazin-1-yl)methyl)-4-((2-(dimethylamino)ethyl)(methyl)amino)benzonitrile] | > 75 |  |
| CN(C)CCN(C)c1ccc(C#N)c(CN2CCN(C(c3ccc(C(C)(C)C)cc3)c3ccc(C(C)(C)C)cc3)CC2)c1 [Compound 82, 2-((4-(bis(4-tert-butylphenyl)methyl)piperazin-1-yl)methyl)-4-((2-(dimethylamino)ethyl)(methyl)amino)benzonitrile] | > 75 |  |
| CN(C)CCN(C)c1ccc(C#N)c(CN2CCN(C(c3ccc(Br)cc3)c3ccc(Br)cc3)CC2)c1 [Compound 83, 2-((4-(bis(4-bromophenyl)methyl)piperazin-1-yl)methyl)-4-((2-(dimethylamino)ethyl)(methyl)amino)benzonitrile] | > 75 |  |
| CN(C)CCN(C)c1ccc(C#N)c(CN2CCN(C(c3ccc(C4CC4)cc3)c3ccc(C4CC4)cc3)CC2)c1 [Compound 84, 2-((4-(bis(4-cyclopropylphenyl)methyl)piperazin-1-yl)methyl)-4-((2-(dimethylamino)ethyl)(methyl)amino)benzonitrile] | > 75 |  |

Reference: US11939307B2, “Phenylmethyl-piperazine derivatives and antiviral uses thereof” (INSTITUTE OF MEDICINAL BIOTECHNOLOGY, CHINESE ACADEMY OF …, priority 2019, dated 2024)
